According to patent US20260130395A1, “Water Dispersible Botanical Compositions” (Aquila Black Limited, priority 2021, published 2026):

Test: Stability of cannabinoid compounds and Vitamin E components in Beverage 2 (AB Red) by LCMSMS
Type: physicochemical
Description: The stability of the plant-derived cannabinoid compounds and Vitamin E components of the beverage stored 8° C. and at room temperature (21-25° C.) were monitored, over a period of 570 days via Liquid Chromatography-tandem Mass Spectrometry [LCMSMS, AGilent 6590, C18, 3×50 mm, 2.7 m (Agilent InfinityLab Poroshell 120 EC-C18), Electrospray Ionization detector]. The LCMSMS was calibrated for 0-50 ng/ml cannabinoids with the same resin material used in the preparation of the concentrates. At each time period, 100 ml of beverage was diluted with 10 ml of methanol and injected into the LCMSMS for analysis.

CCCCCc1cc(O)c2c(c1)OC1(C)CCC3C1C2C3(C)C (centres unmarked) [CBL, cannabicyclol]
Stability of Plant-Derived Cannabinoid Compounds in AB Red (stored at 8° C., 0 days): 0.510 µg/mL
Stability of Plant-Derived Cannabinoid Compounds in AB Red (stored at 8° C., 1 days): 0.512 µg/mL
Stability of Plant-Derived Cannabinoid Compounds in AB Red (stored at 8° C., 2 days): 0.508 µg/mL
Stability of Plant-Derived Cannabinoid Compounds in AB Red (stored at 8° C., 3 days): 0.499 µg/mL
Stability of Plant-Derived Cannabinoid Compounds in AB Red (stored at 8° C., 5 days): 0.501 µg/mL
Stability of Plant-Derived Cannabinoid Compounds in AB Red (stored at 8° C., 8 days): 0.496 µg/mL
Stability of Plant-Derived Cannabinoid Compounds in AB Red (stored at 8° C., 9 days): 0.496 µg/mL
Stability of Plant-Derived Cannabinoid Compounds in AB Red (stored at 8° C., 10 days): 0.505 µg/mL
Stability of Plant-Derived Cannabinoid Compounds in AB Red (stored at 8° C., 11 days): 0.501 µg/mL
Stability of Plant-Derived Cannabinoid Compounds in AB Red (stored at 8° C., 12 days): 0.499 µg/mL
Stability of Plant-Derived Cannabinoid Compounds in AB Red (stored at 8° C., 15 days): 0.510 µg/mL
Stability of Plant-Derived Cannabinoid Compounds in AB Red (stored at 8° C., 16 days): 0.502 µg/mL
Stability of Plant-Derived Cannabinoid Compounds in AB Red (stored at 8° C., 17 days): 0.514 µg/mL
Stability of Plant-Derived Cannabinoid Compounds in AB Red (stored at 8° C., 18 days): 0.513 µg/mL
Stability of Plant-Derived Cannabinoid Compounds in AB Red (stored at 8° C., 19 days): 0.510 µg/mL
Stability of Plant-Derived Cannabinoid Compounds in AB Red (stored at 8° C., 22 days): 0.495 µg/mL
Stability of Plant-Derived Cannabinoid Compounds in AB Red (stored at 8° C., 23 days): 0.502 µg/mL
Stability of Plant-Derived Cannabinoid Compounds in AB Red (stored at 8° C., 24 days): 0.508 µg/mL
Stability of Plant-Derived Cannabinoid Compounds in AB Red (stored at 8° C., 25 days): 0.510 µg/mL
Stability of Plant-Derived Cannabinoid Compounds in AB Red (stored at 8° C., 26 days): 0.502 µg/mL
Stability of Plant-Derived Cannabinoid Compounds in AB Red (stored at 8° C., 29 days): 0.511 µg/mL
Stability of Plant-Derived Cannabinoid Compounds in AB Red (stored at 8° C., 30 days): 0.511 µg/mL
Stability of Plant-Derived Cannabinoid Compounds in AB Red (stored at 8° C., 60 days): 0.491 µg/mL
Stability of Plant-Derived Cannabinoid Compounds in AB Red (stored at 8° C., 90 days): 0.501 µg/mL
Stability of Plant-Derived Cannabinoid Compounds in AB Red (stored at 8° C., 120 days): 0.488 µg/mL
Stability of Plant-Derived Cannabinoid Compounds in AB Red (stored at 8° C., 150 days): 0.501 µg/mL
Stability of Plant-Derived Cannabinoid Compounds in AB Red (stored at 8° C., 180 days): 0.506 µg/mL
Stability of Plant-Derived Cannabinoid Compounds in AB Red (stored at 8° C., 210 days): 0.490 µg/mL
Stability of Plant-Derived Cannabinoid Compounds in AB Red (stored at 8° C., 240 days): 0.490 µg/mL
Stability of Plant-Derived Cannabinoid Compounds in AB Red (stored at 8° C., 270 days): 0.504 µg/mL
Stability of Plant-Derived Cannabinoid Compounds in AB Red (stored at 8° C., 300 days): 0.489 µg/mL
Stability of Plant-Derived Cannabinoid Compounds in AB Red (stored at 8° C., 330 days): 0.505 µg/mL
Stability of Plant-Derived Cannabinoid Compounds in AB Red (stored at 8° C., 360 days): 0.495 µg/mL
Stability of Plant-Derived Cannabinoid Compounds in AB Red (stored at 8° C., 390 days): 0.491 µg/mL
Stability of Plant-Derived Cannabinoid Compounds in AB Red (stored at 8° C., 420 days): 0.494 µg/mL
Stability of Plant-Derived Cannabinoid Compounds in AB Red (stored at 8° C., 450 days): 0.492 µg/mL
Stability of Plant-Derived Cannabinoid Compounds in AB Red (stored at 8° C., 480 days): 0.487 µg/mL
Stability of Plant-Derived Cannabinoid Compounds in AB Red (stored at 8° C., 510 days): 0.468 µg/mL
Stability of Plant-Derived Cannabinoid Compounds in AB Red (stored at 8° C., 540 days): 0.470 µg/mL
Stability of Plant-Derived Cannabinoid Compounds in AB Red (stored at 8° C., 570 days): 0.469 µg/mL
Stability of Plant-Derived Cannabinoid Compounds in AB Red (stored at 21-25° C., 0 days): 0.51 µg/mL
Stability of Plant-Derived Cannabinoid Compounds in AB Red (stored at 21-25° C., 1 days): 0.50 µg/mL
Stability of Plant-Derived Cannabinoid Compounds in AB Red (stored at 21-25° C., 2 days): 0.50 µg/mL
Stability of Plant-Derived Cannabinoid Compounds in AB Red (stored at 21-25° C., 3 days): 0.50 µg/mL
Stability of Plant-Derived Cannabinoid Compounds in AB Red (stored at 21-25° C., 5 days): 0.51 µg/mL
Stability of Plant-Derived Cannabinoid Compounds in AB Red (stored at 21-25° C., 8 days): 0.50 µg/mL
Stability of Plant-Derived Cannabinoid Compounds in AB Red (stored at 21-25° C., 9 days): 0.51 µg/mL
Stability of Plant-Derived Cannabinoid Compounds in AB Red (stored at 21-25° C., 10 days): 0.50 µg/mL
Stability of Plant-Derived Cannabinoid Compounds in AB Red (stored at 21-25° C., 11 days): 0.50 µg/mL
Stability of Plant-Derived Cannabinoid Compounds in AB Red (stored at 21-25° C., 12 days): 0.50 µg/mL
Stability of Plant-Derived Cannabinoid Compounds in AB Red (stored at 21-25° C., 15 days): 0.50 µg/mL
Stability of Plant-Derived Cannabinoid Compounds in AB Red (stored at 21-25° C., 16 days): 0.51 µg/mL
Stability of Plant-Derived Cannabinoid Compounds in AB Red (stored at 21-25° C., 17 days): 0.51 µg/mL
Stability of Plant-Derived Cannabinoid Compounds in AB Red (stored at 21-25° C., 18 days): 0.50 µg/mL
Stability of Plant-Derived Cannabinoid Compounds in AB Red (stored at 21-25° C., 19 days): 0.49 µg/mL
Stability of Plant-Derived Cannabinoid Compounds in AB Red (stored at 21-25° C., 22 days): 0.49 µg/mL
Stability of Plant-Derived Cannabinoid Compounds in AB Red (stored at 21-25° C., 23 days): 0.51 µg/mL
Stability of Plant-Derived Cannabinoid Compounds in AB Red (stored at 21-25° C., 24 days): 0.50 µg/mL
Stability of Plant-Derived Cannabinoid Compounds in AB Red (stored at 21-25° C., 25 days): 0.51 µg/mL
Stability of Plant-Derived Cannabinoid Compounds in AB Red (stored at 21-25° C., 26 days): 0.51 µg/mL
Stability of Plant-Derived Cannabinoid Compounds in AB Red (stored at 21-25° C., 29 days): 0.49 µg/mL
Stability of Plant-Derived Cannabinoid Compounds in AB Red (stored at 21-25° C., 30 days): 0.51 µg/mL
Stability of Plant-Derived Cannabinoid Compounds in AB Red (stored at 21-25° C., 60 days): 0.50 µg/mL
Stability of Plant-Derived Cannabinoid Compounds in AB Red (stored at 21-25° C., 90 days): 0.49 µg/mL
Stability of Plant-Derived Cannabinoid Compounds in AB Red (stored at 21-25° C., 120 days): 0.50 µg/mL
Stability of Plant-Derived Cannabinoid Compounds in AB Red (stored at 21-25° C., 150 days): 0.49 µg/mL
Stability of Plant-Derived Cannabinoid Compounds in AB Red (stored at 21-25° C., 180 days): 0.50 µg/mL
Stability of Plant-Derived Cannabinoid Compounds in AB Red (stored at 21-25° C., 210 days): 0.49 µg/mL
Stability of Plant-Derived Cannabinoid Compounds in AB Red (stored at 21-25° C., 240 days): 0.49 µg/mL
Stability of Plant-Derived Cannabinoid Compounds in AB Red (stored at 21-25° C., 270 days): 0.49 µg/mL
Stability of Plant-Derived Cannabinoid Compounds in AB Red (stored at 21-25° C., 300 days): 0.50 µg/mL
Stability of Plant-Derived Cannabinoid Compounds in AB Red (stored at 21-25° C., 330 days): 0.50 µg/mL
Stability of Plant-Derived Cannabinoid Compounds in AB Red (stored at 21-25° C., 360 days): 0.49 µg/mL
Stability of Plant-Derived Cannabinoid Compounds in AB Red (stored at 21-25° C., 390 days): 0.49 µg/mL
Stability of Plant-Derived Cannabinoid Compounds in AB Red (stored at 21-25° C., 420 days): 0.48 µg/mL
Stability of Plant-Derived Cannabinoid Compounds in AB Red (stored at 21-25° C., 450 days): 0.49 µg/mL
Stability of Plant-Derived Cannabinoid Compounds in AB Red (stored at 21-25° C., 480 days): 0.48 µg/mL
Stability of Plant-Derived Cannabinoid Compounds in AB Red (stored at 21-25° C., 510 days): 0.47 µg/mL
Stability of Plant-Derived Cannabinoid Compounds in AB Red (stored at 21-25° C., 540 days): 0.47 µg/mL
Stability of Plant-Derived Cannabinoid Compounds in AB Red (stored at 21-25° C., 570 days): 0.47 µg/mL
